# According to BindingDB's records for doi:10.3109/14756366.2013.782024 (NAS of Ukraine, 2014):
# Target: Casein kinase II subunit alpha/beta (Homo sapiens, UniProt P68400)
# Experiment: In Vitro Kinase Assay
# Conditions: pH 7.5; 30 °C
# Protocol: Each test was performed twice in a total reaction volume of 30 μL, containing 6 μg of peptide substrate RRRDDDSDDD (New England Biolabs (UK) Ltd., Herts, UK); 10 units of recombinant human CK2 holoenzyme (New England Biolabs); 50 μM ATP and γ-labeled 32P ATP, diluted to specific activity 100 μCi/mM; CK2 buffer (20mM Tris-HCl, pH 7.5; 50mM KCl; 10mM MgCl2) and inhibitor in varying concentrations. Incubation time was 20 min at 30 °C. The reaction was stopped by adding an equal volume of 10% o-phosphoric acid and the reaction mixture was loaded onto 20-mm discs of phosphocellulose paper (Whatman plc, Kent, UK). Discs were washed three times with 1% o-phosphoric acid solution, air-dried at room temperature, and counted by the Cherenkov method in a beta-counter (LKB). As negative control an equal volume of DMSO was added to the reaction mixture. Quercetin, a known CK2 inhibitor, was used as an inhibition positive control. The final concentration of quercetin was 0.55 μM (which inhibited CK2 activity by 50%).
row,IC50 [µM],SMILES
1,> 30,"CC1CS(=O)(=O)N(c2ccc(C(=O)NCC(=O)O)cc2)C1=O (configuration not stated) [N-[4-(4-methyl-1,1-dioxido-3-oxoisothiazolidin-2-yl)benzoyl]glycine (40)]"
2,19.5,"CC1CS(=O)(=O)N(c2ccc(C(=O)Nc3ccc(C(=O)O)c(O)c3)cc2)C1=O (configuration not stated) [2-hydroxy-4-{[4-(4-methyl-1,1-dioxido-3-oxoisothiazolidin-2-yl)benzoyl]amino}benzoic acid (27)]"
3,> 30,"O=C(O)c1ccc(NC(=O)c2ccc(N3C(=O)CCS3(=O)=O)cc2Cl)cc1 [4-{[2-chloro-4-(1,1-dioxido-3-oxoisothiazolidin-2-yl)benzoyl]amino}benzoic acid (34)]"
4,8,"CC1(C)CS(=O)(=O)N(c2ccc(C(=O)Nc3cccc(C(=O)O)c3)cc2)C1=O [3-{[4-(4,4-dimethyl-1,1-dioxido-3-oxoisothiazolidin-2-yl)benzoyl]amino}benzoic acid (28)]"
5,> 30,"CC1(C)CS(=O)(=O)N(c2ccc(C(=O)Nc3ccc(C(=O)O)c(O)c3)cc2)C1=O [4-{[4-(4,4-dimethyl-1,1-dioxido-3-oxoisothiazolidin-2-yl)benzoyl]amino}-2-hydroxybenzoic acid (30)]"
6,1.8,"O=C(O)c1cccc(NC(=O)c2ccc(N3C(=O)CCS3(=O)=O)cc2)c1 [3-{[4-(1,1-dioxido-3-oxoisothiazolidin-2-yl)benzoyl]amino}benzoic acid (21)]"
7,> 30,"COC(=O)c1cc(NC(=O)c2ccc(N3C(=O)C(C)CS3(=O)=O)cc2Cl)ccc1O (configuration not stated) [Methyl 5-{[2-chloro-4-(4-methyl-1,1-dioxido-3-oxoisothiazolidin-2-yl)benzoyl]amino}-2-hydroxybenzoate (39)]"
8,> 30,"CC1CS(=O)(=O)N(c2ccc(C(=O)NCCC(=O)O)cc2)C1=O (configuration not stated) [N-[4-(4-methyl-1,1-dioxido-3-oxoisothiazolidin-2-yl)benzoyl]-b-alanine (41)]"
9,> 30,"CC1CS(=O)(=O)N(c2ccc(C(=O)Nc3ccc(O)c(C(=O)O)c3)cc2)C1=O (configuration not stated) [2-hydroxy-5-{[4-(4-methyl-1,1-dioxido-3-oxoisothiazolidin-2-yl)benzoyl]amino}benzoic acid (25)]"
10,3.7,"CC1CS(=O)(=O)N(c2ccc(C(=O)Nc3cc(C(=O)O)ccc3O)c(Cl)c2)C1=O (configuration not stated) [3-{[2-chloro-4-(4-methyl-1,1-dioxido-3-oxoisothiazolidin-2-yl)benzoyl]amino}-4-hydroxybenzoic acid (37)]"
11,1.5,"O=C(O)c1cccc(NC(=O)c2ccc(N3C(=O)CCS3(=O)=O)cc2Cl)c1 [3-{[2-chloro-4-(1,1-dioxido-3-oxoisothiazolidin-2-yl)benzoyl]amino}benzoic acid (31)]"
12,3.5,"CC1CS(=O)(=O)N(c2ccc(C(=O)Nc3ccc(C(=O)O)c(O)c3)c(Cl)c2)C1=O (configuration not stated) [4-{[2-chloro-4-(4-methyl-1,1-dioxido-3-oxoisothiazolidin-2-yl)benzoyl]amino}-2-hydroxybenzoic acid (38)]"
13,3.6,"CC1CS(=O)(=O)N(c2ccc(C(=O)Nc3cccc(C(=O)O)c3)c(Cl)c2)C1=O (configuration not stated) [3-{[2-chloro-4-(4-methyl-1,1-dioxido-3-oxoisothiazolidin-2-yl)benzoyl]amino}benzoic acid (35)]"
14,3.1,"CC1CS(=O)(=O)N(c2ccc(C(=O)Nc3cccc(C(=O)O)c3)cc2)C1=O (configuration not stated) [3-{[4-(4-methyl-1,1-dioxido-3-oxoisothiazolidin-2-yl)benzoyl]amino}benzoic acid (24)]"
15,14,"O=C(Nc1ccc(C(=O)O)c(O)c1)c1ccc(N2C(=O)CCS2(=O)=O)cc1 [4-{[4-(1,1-dioxido-3-oxoisothiazolidin-2-yl)benzoyl]amino}-2-hydroxybenzoic acid (23)]"
16,3,"O=C(O)c1ccc(NC(=O)c2ccc(N3C(=O)CCS3(=O)=O)cc2Cl)cc1O [4-{[2-chloro-4-(1,1-dioxido-3-oxoisothiazolidin-2-yl)benzoyl]amino}-2-hydroxybenzoic acid (33)]"
17,> 30,"CC1(C)CS(=O)(=O)N(c2ccc(C(=O)Nc3ccc(O)c(C(=O)O)c3)cc2)C1=O [5-{[4-(4,4-dimethyl-1,1-dioxido-3-oxoisothiazolidin-2-yl)benzoyl]amino}-2-hydroxybenzoic acid (29)]"
18,9,"O=C(O)c1cc(NC(=O)c2ccc(N3C(=O)CCS3(=O)=O)cc2Cl)ccc1O [5-{[2-chloro-4-(1,1-dioxido-3-oxoisothiazolidin-2-yl)benzoyl]amino}-2-hydroxybenzoic acid (32)]"
19,8,"O=C(Nc1ccc(O)c(C(=O)O)c1)c1ccc(N2C(=O)CCS2(=O)=O)cc1 [5-{[4-(1,1-dioxido-3-oxoisothiazolidin-2-yl)benzoyl]amino}-2-hydroxybenzoic acid (22)]"
20,16,"CC1CS(=O)(=O)N(c2ccc(C(=O)Nc3cc(C(=O)O)ccc3O)cc2)C1=O (configuration not stated) [4-hydroxy-3-{[4-(4-methyl-1,1-dioxido-3-oxoisothiazolidin-2-yl)benzoyl]amino}benzoic acid (26)]"
21,6,"CC1CS(=O)(=O)N(c2ccc(C(=O)Nc3ccc(O)c(C(=O)O)c3)c(Cl)c2)C1=O (configuration not stated) [5-{[2-chloro-4-(4-methyl-1,1-dioxido-3-oxoisothiazolidin-2-yl)benzoyl]amino}-2-hydroxybenzoic acid (36)]"
22,> 30,"CC1CS(=O)(=O)N(c2ccc(C(=O)NCCCC(=O)O)cc2)C1=O (configuration not stated) [4-{[4-(4-methyl-1,1-dioxido-3-oxoisothiazolidin-2-yl)benzoyl]amino}butanoic acid (42)]"
